Results from publication PMC12274840 (The Journal of Biological Chemistry, 2025).
≈ marks a conversion by molar mass, not a printed value. Read-outs that look alike come from different tables or passages of the source.

Key:
[1] = system: E. coli KA797 cells carrying BlaC position 105 library; type: cell-based, Escherichia coli; settings: for Fi MEM AVG / Fi AVG (average fitness): average of replicates; for Fi AVG (average fitness): relative to WT Ile
[2] = system: E. coli KA797 cells carrying pUK21 with CTX-M-14 WT (Tat); experiment: microbe, parasite or virus in culture; type: cell-based; settings: Escherichia coli, antibiotic alone
[3] = system: E. coli KA797 cells carrying NmcA position 105 library; type: cell-based
[4] = system: E. coli KA797 cells carrying CTX-M-14 position 105 library; type: cell-based; settings: CTX-M-14 WT (Tyr 105)

In the case of `C[C@@H](O)[C@H]1C(=O)N2C(C(=O)O)=C(S[C@@H]3CN[C@H](C(=O)N(C)C)C3)[C@H](C)[C@H]12` [meropenem], the “Significance (Fi MEM AVG)” value ([1]; AA 105 Thr, meropenem) is reported as “-”, the “Fi MEM AVG” value ([1]; AA 105 Thr, meropenem) is reported as -1.775 and the “Fi MEM 1” value ([1]; AA 105 Thr, meropenem, replicate 1) is reported as -1.838. For the same compound, the “Fi MEM 2” value ([1]; AA 105 Thr, meropenem, replicate 2) was -2.332, the “Fi MEM 3” value ([1]; AA 105 Thr, meropenem, replicate 3) was -1.155 and the “Fi MEM AVG” value ([1]; AA 105 Trp, meropenem) was -0.487. The “Fi MEM 1” value ([1]; AA 105 Trp, meropenem, replicate 1) was 0.050, the “Fi MEM 2” value ([1]; AA 105 Trp, meropenem, replicate 2) was -1.403 and the “Fi MEM 3” value ([1]; AA 105 Trp, meropenem, replicate 3) was -0.109. The “Fi AVG (average fitness)” value ([1]; AA 105 Tyr (BlaC I105Y)) was -0.070, the “Fi MEM AVG” value ([1]; AA 105 Tyr, meropenem) was -0.204 and the “Fi MEM 1” value ([1]; AA 105 Tyr, meropenem, replicate 1) was 0.312. For the same compound, the “Fi MEM 2” value ([1]; AA 105 Tyr, meropenem, replicate 2) was -1.109, the “Fi MEM 3” value ([1]; AA 105 Tyr, meropenem, replicate 3) was 0.185 and the “Fi AVG (average fitness)” value ([1]; AA 105 Val (BlaC I105V)) was -0.016. The “Fi MEM AVG” value ([1]; AA 105 Val, meropenem) was -0.855, the “Fi MEM 1” value ([1]; AA 105 Val, meropenem, replicate 1) was 0.059 and the “Fi MEM 2” value ([1]; AA 105 Val, meropenem, replicate 2) was -2.574. The “Fi MEM 3” value ([1]; AA 105 Val, meropenem, replicate 3) was -0.049, the “WT abs Fi 1” value ([1]; WT (Ile 105) absolute fitness, meropenem, replicate 1) was 0.125 and the “WT abs Fi 2” value ([1]; WT (Ile 105) absolute fitness, meropenem, replicate 2) was 0.070. The “WT abs Fi 3” value ([1]; WT (Ile 105) absolute fitness, meropenem, replicate 3) was 0.109, the MIC [2] was 0.1 µg/mL (≈ 0.261 µM) and the “Fi (relative fitness), Replicate 1” value ([3]; NmcA AA 105 Ala) was -0.381. For the same compound, the “Fi AVG (average fitness of replicates)” value ([3]; NmcA AA 105 Ala) was -0.261, the “Significance of average fitness” value ([3]; NmcA AA 105 Ala) was “-” and the “Fi (relative fitness), Replicate 1” value ([3]; NmcA AA 105 Arg) was 0.092. The “Fi AVG (average fitness of replicates)” value ([3]; NmcA AA 105 Arg) was 0.048, the “Fi (relative fitness), Replicate 1” value ([3]; NmcA AA 105 Asn) was 0.031 and the “Fi AVG (average fitness of replicates)” value ([3]; NmcA AA 105 Asn) was 0.087. For the same compound, the “Fi (relative fitness), Replicate 1” value ([3]; NmcA AA 105 Asp) was -0.205, the “Fi AVG (average fitness of replicates)” value ([3]; NmcA AA 105 Asp) was -0.182 and the “Significance of average fitness” value ([3]; NmcA AA 105 Asp) was “-”. The “Fi (relative fitness), Replicate 1” value ([3]; NmcA AA 105 Cys) was -0.468, the “Fi AVG (average fitness of replicates)” value ([3]; NmcA AA 105 Cys) was -0.282 and the “Significance of average fitness” value ([3]; NmcA AA 105 Cys) was “-”. The “Fi (relative fitness), Replicate 1” value ([3]; NmcA AA 105 Gln) was 0.037, the “Fi AVG (average fitness of replicates)” value ([3]; NmcA AA 105 Gln) was 0.055 and the “Fi (relative fitness), Replicate 1” value ([3]; NmcA AA 105 Glu) was -0.016. The “Fi AVG (average fitness of replicates)” value ([3]; NmcA AA 105 Glu) was -0.061, the “Fi (relative fitness), Replicate 1” value ([3]; NmcA AA 105 Gly) was 0.015 and the “Fi AVG (average fitness of replicates)” value ([3]; NmcA AA 105 Gly) was -0.027. For the same compound, the “Fi (relative fitness), Replicate 1” value ([3]; NmcA AA 105 His) was 0.000, the “Fi AVG (average fitness of replicates)” value ([3]; NmcA AA 105 His) was 0.000 and the “Fi AVG (average fitness of replicates)” value ([3]; NmcA AA 105 Ile) was 0.105. The “Significance of average fitness” value ([3]; NmcA AA 105 Ile) was “+”, the “Fi (relative fitness), Replicate 1” value ([3]; NmcA AA 105 Leu) was -0.100 and the “Fi AVG (average fitness of replicates)” value ([3]; NmcA AA 105 Leu) was -0.100. For the same compound, the “Significance of average fitness” value ([3]; NmcA AA 105 Leu) was “-”, the “Fi (relative fitness), Replicate 1” value ([3]; NmcA AA 105 Lys) was -0.081 and the “Fi AVG (average fitness of replicates)” value ([3]; NmcA AA 105 Lys) was -0.032. For the same compound, the “Fi (relative fitness), Replicate 1” value ([3]; NmcA AA 105 Met) was -0.00142, the “Fi AVG (average fitness of replicates)” value ([3]; NmcA AA 105 Met) was 0.024 and the “Fi (relative fitness), Replicate 1” value ([3]; NmcA AA 105 Phe) was 0.169. For the same compound, the “Fi AVG (average fitness of replicates)” value ([3]; NmcA AA 105 Phe) was 0.140, the “Significance of average fitness” value ([3]; NmcA AA 105 Phe) was “+” and the “Fi (relative fitness), Replicate 1” value ([3]; NmcA AA 105 Pro) was -0.067. The “Fi AVG (average fitness of replicates)” value ([3]; NmcA AA 105 Pro) was -0.060, the “Significance of average fitness” value ([3]; NmcA AA 105 Pro) was “-” and the “Fi (relative fitness), Replicate 1” value ([3]; NmcA AA 105 Ser) was -0.066. The “Fi AVG (average fitness of replicates)” value ([3]; NmcA AA 105 Ser) was -0.071, the “Significance of average fitness” value ([3]; NmcA AA 105 Ser) was “-” and the “Fi (relative fitness), Replicate 1” value ([3]; NmcA AA 105 Thr) was -0.118. For the same compound, the “Fi AVG (average fitness of replicates)” value ([3]; NmcA AA 105 Thr) was -0.120, the “Significance of average fitness” value ([3]; NmcA AA 105 Thr) was “-” and the “Fi (relative fitness), Replicate 1” value ([3]; NmcA AA 105 Trp) was 0.105. The “Fi AVG (average fitness of replicates)” value ([3]; NmcA AA 105 Trp) was 0.078, the “Fi (relative fitness), Replicate 1” value ([3]; NmcA AA 105 Tyr) was -0.154 and the “Fi AVG (average fitness of replicates)” value ([3]; NmcA AA 105 Tyr) was -0.163. For the same compound, the “Significance of average fitness” value ([3]; NmcA AA 105 Tyr) was “-”, the “Fi (relative fitness), Replicate 1” value ([3]; NmcA AA 105 Val) was -0.043 and the “Fi AVG (average fitness of replicates)” value ([3]; NmcA AA 105 Val) was -0.035. For the same compound, the “WT abs Fi 1 (absolute fitness)” value ([3]; NmcA WT, replicate 1) was 0.00454, the “WT abs Fi 2 (absolute fitness)” value ([3]; NmcA WT, replicate 2) was 0.092 and the “WT abs Fi 3 (absolute fitness)” value ([3]; NmcA WT, replicate 3) was 0.017. The “WT abs Fi 1 (absolute fitness of wild type, Replicate 1)” value [4] was -0.645 and the “WT abs Fi 2 (absolute fitness of wild type, Replicate 2)” value [4] was -0.807.
